According to US11452758B2, “Antimicrobial peptide derived from LL37 peptide and uses thereof” (INDUSTRY-ACADEMIC COOPERATION FOUNDATION, CHOSUN UNIVERSITY, priority 2018, dated 2022):
Values after ≈ are worked out from the molar mass of the structure shown.

Key:
A. baumannii #10 [1] = test: Antibiofilm activity, Crystal violet staining; type: cell-based, Acinetobacter baumannii; settings: 24 hours
Protocol: (§1) To compare the antimicrobial activity among the peptides produced by the method of Example 1, the inventors of the present invention measured the biofilm inhibitory concentration value of the peptide for not allowing any dissociation of bacterial cells.
(§2) Specifically, among the bacterial strains described in the above Table 2, bacteria showing the most favorable biofilm forming were cultured to a mid-log phase in a medium with suitable composition. Then, after dilution to bacterial cell concentration of 1×10^6 cells/50 μl, the cells were inoculated to a microtiter plate. Thereafter, LL37, LL37-1, LL37-2, LL37-3 or LL37-4 peptide which has been synthesized in Example 1 above was diluted, 1/10 times for each, with 10 mM phosphate buffered physiological saline (PBS) in a 96-well plate. After adding the peptide (50 μl) to each well of the plate, the cells were cultured for 24 hours at 37° C. After removing the supernatant completely, the cells were fixed with 100% methanol for 15 minutes and stained for 1 hour with Crystal violet staining solution followed by rinsing for 3 times. Then, after dissolving in 95% ethanol, the absorbance was measured at a wavelength of 595 nm by using a microtiter plate reader to determine the biofilm minimal inhibitory concentration value of each bacterial strain.

A. baumannii #5 [2] = test: Antibiofilm activity, Crystal violet staining; type: cell-based, Acinetobacter baumannii; settings: 24 hours
Protocol: as §1, §2

A. baumannii KCTC 2508 [3] = test: Antibiofilm activity, Crystal violet staining; type: cell-based, Acinetobacter baumannii; settings: 24 hours
Protocol: as §1, §2

A. baumannii #10 [4] = type: cell-based, Acinetobacter baumannii; settings: #10
Excerpt: (§3) To compare the antimicrobial activity among the peptides produced by the method of Example 1, the inventors of the present invention measured the minimal growth inhibitory concentration (MIC), which is minimum concentration of the peptide not allowing any […] of bacterial cells.
(§4) Specifically, the bacterial strains described in the following Table 2 were purchased and cultured to a mid-log phase in MHB (Mueller Hinton Broth) medium. Then, after dilution to bacterial cell concentration of 2×10^5 cells/50 μl, the cells were inoculated to a microtiter plate (NUNC, USA). Thereafter, LL37-1, LL37-2, LL37-3 or LL37-4 peptide which has been synthesized in Example 1 above was subjected to serial dilution, ½ times for each, in a 96-well plate. After adding the peptides in an amount of 50 μl to the cell plate, the cells were cultured for 18 hours at 37° C. By using a microtiter plate reader (Merck Elisa reader, Germany), the absorbance was measured at a wavelength of 600 nm to determine the MIC value of each bacterial strain. As a control group, LL37 as a mother peptide was used and subjected to the same process as above to determine the MIC value of each strain.

A. baumannii #9 = type: cell-based, Acinetobacter baumannii; settings: #9
Excerpt: as §3, §4

A. baumannii #5 [5] = type: cell-based, Acinetobacter baumannii; settings: #5
Excerpt: as §3, §4

A. baumannii #12 = type: cell-based, Acinetobacter baumannii; settings: #12
Excerpt: as §3, §4

A. baumannii #8 = type: cell-based, Acinetobacter baumannii; settings: #8
Excerpt: as §3, §4

A. baumannii #3 = type: cell-based, Acinetobacter baumannii; settings: #3
Excerpt: as §3, §4

A. baumannii #19 = type: cell-based, Acinetobacter baumannii; settings: #19
Excerpt: as §3, §4

A. baumannii #11 = type: cell-based, Acinetobacter baumannii; settings: #11
Excerpt: as §3, §4

A. baumannii #4 = type: cell-based, Acinetobacter baumannii; settings: #4
Excerpt: as §3, §4

A. baumannii KCTC 2508 [6] = type: cell-based, Acinetobacter baumannii
Excerpt: as §3, §4

A. baumannii #13 = type: cell-based, Acinetobacter baumannii; settings: #13
Excerpt: as §3, §4

A. baumannii #2 = type: cell-based, Acinetobacter baumannii; settings: #2
Excerpt: as §3, §4

E. coli ATCC 25922 = type: cell-based, Escherichia coli; settings: ATCC 25922, 18 h
Excerpt: as §3, §4

[7] = tested on: Acinetobacter baumannii KCTC 2508; test: Flow cytometry after PI staining (bacteria membrane); type: cell-based; settings: peptide at concentration of MIC, 30 minutes at 37° C.
Protocol: To determine whether or not the peptides prepared by the method of Example 1 have any effect on bacteria membrane, an analysis was made by flow cytometry.
After that, the supernatant was removed by centrifuge (10,000 rpm) and stained with propidium iodide (PI, concentration of 10 μg/ml) for 30 minutes at 4° C. Thereafter, unbound propidium iodide was removed by centrifuge, and the problem of cell aggregation phenomenon was solved by adding physiological saline (PBS) in an amount of 1 ml.

[8] = tested on: Acinetobacter baumannii KCTC 2508; test: Low vacuum scanning electron microscopy (membrane-disrupting property); type: cell-based; settings: peptide at MIC concentration, 30 minutes at 37° C.
Protocol: To specifically determine the degree of antimicrobial activity of the synthesized peptides of the present invention, the influence of mother peptide LL37 and homologous peptides LL37-1, LL37-2, LL37-3 and LL37-4 on bacteria membrane, i.e., membrane-disrupting property, was determined by low vacuum scanning electron microscopy.
Specifically, Acinetobacter baumannii KCTC 2508 cells were cultured to a mid-log phase in MHB medium, and then diluted to a cell concentration of 2×10^7 cells/ml in physiological saline containing 10% MHB medium. […] After that, by using 2.5% glutaraldehyde, the bacterial cells were fixed for 30 minutes at room temperature and then for 12 hours at 4° C. After carrying out washing with buffer, the cells were fixed again with […] and dehydrated in stepwise manner by using ethanol. After the dehydration, platinum coating was carried out and the cells were observed by low vacuum scanning electron microscopy.

P. aeruginosa ATCC 27853 = type: cell-based, Pseudomonas aeruginosa; settings: ATCC 27853, 18 h
Excerpt: as §3, §4

Compound: CC[C@H](C)[C@H](NC(=O)[C@H](CCCCN)NC(=O)[C@H](CCC(=O)O)NC(=O)[C@H](CCCCN)NC(=O)[C@H](CO)NC(=O)[C@H](CCCCN)NC(=O)[C@H](CCCNC(=N)N)NC(=O)[C@H](Cc1ccccc1)NC(=O)[C@H](Cc1ccccc1)NC(=O)[C@H](CC(=O)O)NC(=O)CNC(=O)[C@H](CC(C)C)NC(=O)[C@@H](N)CC(C)C)C(=O)NCC(=O)N[C@@H](CCCCN)C(=O)N[C@@H](CCC(=O)O)C(=O)N[C@@H](Cc1ccccc1)C(=O)N[C@@H](CCCCN)C(=O)N[C@@H](CCCNC(=N)N)C(=O)N[C@H](C(=O)N[C@H](C(=O)N[C@@H](CCC(N)=O)C(=O)N[C@@H](CCCNC(=N)N)C(=O)N[C@H](C(=O)N[C@@H](CCCCN)C(=O)N[C@@H](CC(=O)O)C(=O)N[C@@H](Cc1ccccc1)C(=O)N[C@@H](CC(C)C)C(=O)N[C@@H](CCCNC(=N)N)C(=O)N[C@@H](CC(N)=O)C(=O)N[C@@H](CC(C)C)C(=O)N[C@H](C(=O)N1CCC[C@H]1C(=O)N[C@@H](CCCNC(=N)N)C(=O)N[C@H](C(=O)N[C@@H](CCC(=O)O)C(=O)N[C@@H](CO)C(N)=O)[C@@H](C)O)C(C)C)[C@@H](C)CC)C(C)C)[C@@H](C)CC [LL37]
- Biofilm forming ability (A. baumannii #10 [1]; peptide 2 μM): 62%
- Biofilm forming ability (A. baumannii #10 [1]; peptide 4 μM): 58%
- Biofilm forming ability (A. baumannii #10 [1]; peptide 8 μM): 54%
- Biofilm forming ability (A. baumannii #10 [1]; peptide 16 μM): 53%
- Biofilm forming ability (A. baumannii #10 [1]; peptide 32 μM): 13%
- Biofilm forming ability (A. baumannii #5 [2]; peptide 2 μM): 97%
- Biofilm forming ability (A. baumannii #5 [2]; peptide 4 μM): 74%
- Biofilm forming ability (A. baumannii #5 [2]; peptide 8 μM): 40%
- Biofilm forming ability (A. baumannii #5 [2]; peptide 16 μM): 36%
- Biofilm forming ability (A. baumannii #5 [2]; peptide 32 μM): 15%
- Biofilm forming ability (A. baumannii KCTC 2508 [3]; peptide 2 μM): 42%
- Biofilm forming ability (A. baumannii KCTC 2508 [3]; peptide 4 μM): 39%
- Biofilm forming ability (A. baumannii KCTC 2508 [3]; peptide 8 μM): 33%
- Biofilm forming ability (A. baumannii KCTC 2508 [3]; peptide 16 μM): 23%
- Biofilm forming ability (A. baumannii KCTC 2508 [3]; peptide 32 μM): 10%
- Minimal inhibitory concentration (A. baumannii #10 [4]): 2 µM (≈ 8.98 µg/mL)
- Minimal inhibitory concentration (A. baumannii #9): 2 µM (≈ 8.98 µg/mL)
- Minimal inhibitory concentration (A. baumannii #5 [5]): 2 µM (≈ 8.98 µg/mL)
- Minimal inhibitory concentration (A. baumannii #12): 2 µM (≈ 8.98 µg/mL)
- Minimal inhibitory concentration (A. baumannii #8): 2 µM (≈ 8.98 µg/mL)
- Minimal inhibitory concentration (A. baumannii #3): 2 µM (≈ 8.98 µg/mL)
- Minimal inhibitory concentration (A. baumannii #19): 2 µM (≈ 8.98 µg/mL)
- Minimal inhibitory concentration (A. baumannii #11): 2 µM (≈ 8.98 µg/mL)
- Minimal inhibitory concentration (A. baumannii #4): 2 µM (≈ 8.98 µg/mL)
- Minimal inhibitory concentration of antimicrobial peptide (A. baumannii KCTC 2508 [6]; KCTC 2508): 2 µM
- Minimal inhibitory concentration (A. baumannii KCTC 2508 [6]; KCTC 2508, 18 h): 2 µM (≈ 8.98 µg/mL)
- Minimal inhibitory concentration (A. baumannii #13): 2 µM (≈ 8.98 µg/mL)
- Minimal inhibitory concentration (A. baumannii #2): 2 µM (≈ 8.98 µg/mL)
- Minimal inhibitory concentration (E. coli ATCC 25922): 32 µM (≈ 144 µg/mL)
- effect on bacteria membrane (PI fluorescence, flow cytometry) [7]: bacteria membrane was damaged
- membrane-disrupting property (scanning electron microscopy) [8]: disruption of bacteria membrane
- Minimal inhibitory concentration (P. aeruginosa ATCC 27853): 8 µM (≈ 35.9 µg/mL)
